In patent US10603292B2 (Boehringer Ingelheim International GmbH, priority 2017, dated 2020):

What was measured:
[1] = tested on: oxygen-induced retinopathy (OIR) mouse model; assay: Neovascular tuft formation in oxygen-induced retinopathy (OIR) mouse model; details: neonatal mice, 1.8 mg/kg s.c. at P12 and P14, read at P16, vs vehicle control
Description: Application volume was 10 ml/kg. Control animals received vehicle only.
In this context P means postnatal day. […] Starting from P12, the avascular area begins to revascularize and at the same time neovascular tufts protrude towards the vitreous. At P16 and P17, aberrant pathological neovascularization peaks and revascularization is still incomplete. Mouse eyes were enucleated, fixed in 4% PFA for at least 24 h, and embedded in paraffin. Every 3rd slide from serial sections (6 μm thick) was taken from around the region of the optic nerve. The PAS-stained sections were examined for the presence of neovascular tufts projecting into the vitreous from the inner limiting membrane of the retina. The neovascular score was defined as the mean number of neovascular cell nuclei per section found in ten sections (five on each side of the optic nerve) per eye. Tufts adjacent to the optic nerve (up to 90 μm from each side) were discriminated from counting. Data are represented as mean of 10 slides ±SEM counted tuft cells with one-way ANOVA testing and p<0.05 regarded as significant.

[2] = target: T1, AOC3 (Mus musculus, UniProt O70423); assay: AOC3 activity in sentinel lung tissue homogenates of OIR mice; details: 1.8 mg/kg s.c.
T1 sequence (O70423 1-765): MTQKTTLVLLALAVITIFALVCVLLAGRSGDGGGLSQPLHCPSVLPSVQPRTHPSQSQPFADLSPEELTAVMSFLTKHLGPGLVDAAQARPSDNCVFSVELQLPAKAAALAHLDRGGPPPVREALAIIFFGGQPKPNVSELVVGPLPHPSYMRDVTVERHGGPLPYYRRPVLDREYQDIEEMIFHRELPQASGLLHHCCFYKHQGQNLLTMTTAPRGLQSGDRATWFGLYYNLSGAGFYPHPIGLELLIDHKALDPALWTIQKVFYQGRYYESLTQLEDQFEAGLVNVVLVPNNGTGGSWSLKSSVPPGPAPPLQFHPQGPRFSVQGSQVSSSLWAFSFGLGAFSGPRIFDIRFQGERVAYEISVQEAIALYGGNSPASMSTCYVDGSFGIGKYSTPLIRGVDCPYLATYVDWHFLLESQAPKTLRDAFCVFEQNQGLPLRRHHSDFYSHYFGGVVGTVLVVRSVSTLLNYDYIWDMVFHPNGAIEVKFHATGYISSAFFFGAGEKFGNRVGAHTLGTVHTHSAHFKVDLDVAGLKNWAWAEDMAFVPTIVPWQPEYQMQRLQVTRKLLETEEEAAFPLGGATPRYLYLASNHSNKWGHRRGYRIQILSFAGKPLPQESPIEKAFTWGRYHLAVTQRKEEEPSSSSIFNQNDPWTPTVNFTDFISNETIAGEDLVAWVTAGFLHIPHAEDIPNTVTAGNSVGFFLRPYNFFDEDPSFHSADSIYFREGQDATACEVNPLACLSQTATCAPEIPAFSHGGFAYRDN

[3] = tested on: STZ-induced diabetic rat model; assay: Retinal function (ERG light sensitivity) in STZ-induced diabetic rat model; format: in vivo; details: STZ diabetic rats, 1.8 mg/kg orally twice daily for 5 weeks; group 3 compared to diabetic vehicle group 2
Description: Male Brown Norway rats (BN rats) were obtained from Charles River (Germany). Hyperglycemia was induced by i.p. injections of STZ (65 mg/kg body weight). […] API was used in the form of its hydrochloride. Retinal function was assessed via electroretinography (ERG) recordings. ERG is a non-invasive electrophysiological technique to assess light-induced electrical activity of different retinal neurons, and allows for quantifying different aspects of retinal function such as dim light or color vision. After induction of diabetes via i.p. STZ application (day 1), diabetic (hyperglycemic) animals were randomized into groups of similar blood glucose concentrations (>20 mM at day 5). At week 5 post diabetes induction, ERG recordings were performed to quantify the extent of neuronal dysfunction in the retina. […] The light sensitivity of rod-driven ERG b-wave responses is a measure for the number of neurons participating in the rod-driven retinal pathway (in particular photoreceptors and downstream bipolar cells), and their sensitivity towards light stimuli in order to produce depolarizing light responses. […]

Row | SMILES | Reduction of retinal neovascular tuft formation (tuft number) [1] | Inhibition of AOC3 activity in sentinel lung tissue homogenates [2] | Increase in normalized light sensitivity of rod-driven ERG b-wave responses [3]
1 | C[C@@H]1C[C@H]2[C@@H]3CCC4=CC(=O)C=C[C@]4(C)[C@@]3(F)[C@@H](O)C[C@]2(C)[C@@]1(O)C(=O)CO [Dexamethasone] | 57% | no significant effect | 
2 | CC(C)(C)NC(=O)c1ccc(OC/C(=C/F)CN)cc1 [API, (E)-4-(2-(aminomethyl)-3-fluoroallyloxy)-N-tert-butylbenzamide] | 49% |  | ~30%
